The subject of one data set is HIV-LacZ. Type of data set: cell-based. To be noted: for cross resistance of cell lines “persistently resistant” to AZT to other nucleoside analogs: d4T at 50 μM.
The test system of a further data set is MLV-neo. Kind of data set: MLV-neo colony formation in the presence of antiviral agents. As to conditions: Hela-T4, AZT 10 uM, DDI 50 uM, DDC 10 uM, D4T 50 uM, control 9050. Type of data set: cell-based, Moloney Leukemia virus. Here is the method:
Production of recombinant HIV-gpt has been described elsewhere (26). The amphotropic cell line PA317 was transfected with the recombinant murine retrovirus pLXSN (36) and was used as the source of the recombinant MLV-neo virus. Stock preparations of HIV-1IIIB were harvested from H9 cells by the “shake off method” (13). Stock virus infectivity was determined by end-point dilution in MT-2 cells (32). Virus induced cytopathic effect was scored 7 days post-infection and the TCID50 was calculated with the Reed and Muench equation (33).
To confirm this high rate of infection in the absence of genetic drug resistance, we used several other recombinant viruses and host cells. […] A high rate of infection of Jurkat cells in the presence of d4T has also been seen.
Table 5. HIV-gpt produced in COS cells by transfection with plasmids (plasmid derived) is compared with HIV-gpt produced by, rescue from H9/HIV-gpt cell line after infection with HIV-IIIB and cells infected with MLV-neo.
(§1) Table 6. Colony formation and persistent resistance after Hela-T4 cell infection with MLV-neo virus in the presence and absence of various antiviral agents.

For data set [1], the system named is recombinant HIV, recombinant MLV, or replication-competent HIV. Type of data set: cell-based. To be noted: Hela-T4, MLV-neo; for No. of persistently resistant colonies: AZT 10 uM, DDI 50 uM, DDC 10 uM, D4T 50 uM, resistant/tested; for Frequency: frequency of persistently resistant colonies.
Text: The presence of a selectable marker gene in the recombinant HIV allowed the isolation of cells infected by the recombinant viruses in the presence of d4T. These cells were characterized by infection with both additional recombinant viruses and by replication-competent viruses.
as §1

Data set [2] can be described thus: HPLC analysis of phosphorylated AZT metabolites in clones incubated with 3H-AZT. Type of data set: in vitro ADME. Here is the method: Cell lines were incubated with ^3H-thymidine or ^3H-AZT for 4 hours. Dried methanol extracts of the clones were redissolved in 60 μof distilled water and centrifuged to remove undissolved material. Twenty microliters of the sample was injected and separated on a 10×100 mm Rainin Hydropore anion exchange column. The nucleosides were eluted from the column with a linear gradient of potassium phosphate (5 mM to 1 M, pH4.0) at a flow rate of 1 ml/min. The samples were collected (0.5 ml), mixed with 5 ml Packard scintillation fluid, and quantitated using a liquid scintillation counter. Phosphorylated derivatives of thymidine and AZT were identified with authentic standards.
Pool sizes were determined by incubation of cells with ^3H-AZT for 4 hours followed by cellular extraction and HPLC. The numbers are expressed as pmoles/10^6 cells. The numbers in parentheses represent the percentage of total radioactive species in that pool.

The next data set deals with HIV-gpt. Kind of data set: HIV-gpt colony formation after infection of HeLa-T4 cells in the presence of antiretroviral agents. Type of data set: cell-based. To be noted: HeLa-T4; plasmid derived HIV-gpt (COS cells); AZT 10 μM, DDI 50 μM, D4T 50 μM; no drug control 8800.
The mark [3] stands for this setting: S1 (sensitive) cell line, 3H-AZT for 4 hours, HPLC.
The mark [4] stands for this setting: R116 (“persistently resistant”) cell line, 3H-AZT for 4 hours, HPLC.

On to `Nc1ccn([C@H]2CC[C@@H](CO)O2)c(=O)n1` [DDC], for which the “cross resistance of cell lines “persistently resistant” to AZT to other nucleoside analogs” value in the data set with HIV-LacZ was “None of the “persistently resistant” cell lines were cross “resistant””. Moreover, the No. of colonies in the data set with MLV-neo is recorded as 17. Further, in data set [1], the “No. of persistently resistant colonies” value was 2/17 and the Frequency is listed as 2.2 × 10^−4.
Turning to `Cc1cn([C@H]2C[C@H](N=[N+]=[N-])[C@@H](COP(=O)(O)OP(=O)(O)O)O2)c(=O)[nH]c1=O` [AZTDP, 3′-azido-3′-deoxythymidine diphosphate], the concentration in cells in data set [2] (setting [3]) turned out to be 0.0116 pmoles/10^6 cells; in data set [2] (human, 4 h) it was 0.0193 pmoles/10^6 cells. Further, the “percentage of total radioactive species in that pool” value (“percentage” for short) in data set [2] (setting [3]) is given as 6.9%; in data set [2] (human, 4 h) it was 9.6%.
On to `Cc1cn([C@H]2C[C@H](N=[N+]=[N-])[C@@H](COP(=O)(O)O)O2)c(=O)[nH]c1=O` [AZTMP, 3′-azido-3′-deoxythymidine monophosphate], for which, in data set [2] (setting [4]), the concentration in cells was 0.1575 pmoles/10^6 cells and the “percentage” value was 78.6%. Moreover, in data set [2] (setting [3]), the concentration in cells is given as 0.1212 pmoles/10^6 cells and the “percentage” value came to 71.6%.
`Cc1cn([C@H]2C[C@H](N=[N+]=[N-])[C@@H](CO[P@](=O)(O)O[P@](=O)(O)OP(=O)(O)O)O2)c(=O)[nH]c1=O` [AZTTP, 3′-azido-3′-deoxythymidine triphosphate]: in data set [2] (3H-AZT incubation), the “reduction in AZTTP in R116 cells compared to S1 cells” value is reported as roughly 2 fold. Also, in data set [2] (setting [3]), the concentration in cells is recorded as 0.0158 pmoles/10^6 cells and the “percentage” value was 9.3%. Also, in data set [2] (human, 4 h), the concentration in cells was found to be 0.0083 pmoles/10^6 cells and the “percentage” value is on record as 4.2%.
`O=c1[nH]cnc2c1ncn2[C@H]1CC[C@@H](CO)O1` [DDI]: the Number of colonies in the data set on HIV-gpt is given as 16. Also, the “Number of “persistently resistance” colonies” value in the data set with HIV-LacZ (colonies from HIV-gpt infection of HeLa-T4 in presence of drug, resistant/tested) is 2/16. Besides, in the data set with HIV-LacZ, the “cross resistance of cell lines “persistently resistant” to AZT to other nucleoside analogs” value is given as “None of the “persistently resistant” cell lines were cross “resistant””. For the same molecule, the Frequency in the data set on HIV-LacZ (frequency of persistently resistant colonies, HeLa-T4, plasmid derived HIV-gpt) is 2.3 × 10^−4. Further, the No. of colonies with MLV-neo stood at 19. Moreover, in data set [1], the “No. of persistently resistant colonies” value is listed as 4/19 and the Frequency was 4.4 × 10^−4.

These data come from US6576622B1, “Drug combination for the treatment of viral diseases” (University of Medicine & Dentistry of New Jersey, priority 1995, dated 2003).
